For assay [1], the target named is Flunitrazopam-Bindungstest. Nature of the assay: Flunitrazepam binding test (FNB). The settings on record: read-out: IK50-Wert FNB.
The subject of assay [2] is durch PAF induzierte Aggregation von Humanthrambozyten. In words: Inhibition of PAF-induced platelet aggregation in vitro (Born and Cross method). It is filed as cell-based. Conditions: Homo sapiens. The text has this: 1. In vitro Untersuchun^qen: Hemmung der Blutplättchen-Aqqreqation
Zur Bestimmung der PAF-antagonistischen Wirkung von Substanzen wurde die durch PAF induzierte Aggregation von Humanthrambozyten in vitro verwendet. Zur Gewinnung von thrombozytenreichem Plasma (TRP) erfolgt die Blutentnahme aus einer nicht gestauten Vene mit Hilfe einer Plastikspritze, in der sich 3,8 %ige Natriumcitratlösung befindet. Das Verhältnis zwischen Natriumcitratlösung und Blut beträgt 1:9. Nach vorsichtiger Durchmischung wird das Citratblut bei 150 x g (1200 U/min) 20 Minuten lang zentrifugiert. Die Messung der Thrombozytenaggregation erfolgt nach dem von Born und Cross ausgearbeiteten Verfahren (G. V. R. Born und M.J. Cross, J. Physiol. 168, 178 (1963)), wobei dem TRP unter ständigem Rühren PAF als Auslöser der Aggregation zugesetzt wird.
Die Prüfsubstanz wird jeweils 2 - 3 Minuten vor Auslösung der Aggregation in einem Volumen von 10 µl zugesetzt. Als Lösungsmittel dienen entweder Aqua.dest., Ethanol und/oder Dimethylsulgoxyd. Kontrollansätze erhalten entsprechende Volumina dieser Lösungsmittel. Nach Registrierung der Ausgangsabsorption (2-3 Minuten) wird die Aggregation mit PAF (5 x 10^-8M) induziert.
Zur Beurteilung von Substanzeffekten wird das Maximum der ersten Aggregationswelle verwendet. Die durch PAF induzierte maximale Absorptionsrate maximale Aggregation x 100 %) wird jeweils gleichzeitig in einem Parallelansatz (= Kontrollansatz in einem der Kanäle des 2 Kanal-Aggregometers) zu jedem Testansatz (zweiter Kanal) mitgeprüft und als 100 %-Wert verwendet.
Der unter dem Einfluß der Testsubstanz erreichte Aggregationswert wird als 100 % angegeben.
Jede Prüfsubstanz wird bei Konzentrationen von 10^-3 bis 10^-8M mit einem Stichprobenumfang von jeweils n= 4 hinsichtlich einer hemmenden Wirkung auf die durch PAF induzierte Thrombozytenaggregation untersucht. Danach wird eine Konzentrations-Wirkungskurve anhand von 3 Konzentrationen erstellt und die IK50 (Konzentration bei einer 50%igen Aggregationsheinmung) ermittelt. Die IK-Werte von Verbindungen der allgemeinen Formel I bewegen sich im allgemeinen um Werte, die kleiner als 9 µM sind.

The mark [3] stands for this setting: read-out: IK50 (Konzentration bei einer 50%igen Aggregationshemmung).

Like-named read-outs stand apart in the source and are kept apart here.

Consider `Cc1nnc2n1-c1ccc(OCC(=O)NC3CCN(C)CC3)cc1C(c1ccccc1Cl)=NC2` [(c)], for which the IC50 in assay [1] worked out at 2160 nM; in assay [2] (read-out: IK50-Wert PAF) it was 800 nM. As for `Cc1cnc2n1-c1ccc(OCCCN3CCOCC3)cc1C(c1ccccc1)=NC2` [(l)], the IC50 in assay [1] was more than 5000 nM; in assay [2] (read-out: IK50-Wert PAF), 100 nM. With `Cc1nnc2n1-c1ccc(OCCN3C(=O)c4ccccc4C3=O)cc1C(c1ccccc1Cl)=NC2` [(e)], the IC50 in assay [2] (read-out: IK50-Wert PAF) amounted to 300 nM. Regarding `Cc1nnc2n1-c1ccc(OCCN3CCOCC3)cc1C(c1ccccc1Cl)=NC2` [(d)], the values for the IC50 in assay [1] and in assay [2] (read-out: IK50-Wert PAF) were 2680 nM and 300 nM, respectively. Consider `Cc1nnc2n1-c1ccc(OCc3cccnc3)cc1C(c1ccccc1)=NC2` [(k)], for which the IC50 in assay [1] is 1420 nM; in assay [2] (read-out: IK50-Wert PAF), 200 nM.

For the compound `Cc1nnc2n1-c1ccc(C(=O)OCCCN(C)C)cc1C(c1ccccc1Cl)=NC2` [(h)], the IC50 in assay [2] (read-out: IK50-Wert PAF) came to 1200 nM. For `Cc1cnc2n1-c1ccc(OCc3cccnc3)cc1C(c1ccccc1)=NC2` (atropisomer, axis not shown) [(m)], in assay [2] (read-out: IK50-Wert PAF), the IC50 is 100 nM. For `Cc1nnc2n1-c1ccc(OCCCN3CCOCC3)cc1C(c1ccccc1)=NC2` [(j)], the IC50 is more than 5000 nM in assay [1] and 100 nM in assay [2] (read-out: IK50-Wert PAF). `Cc1nnc2n1-c1ccc(Cl)cc1C(c1ccccc1Cl)=NC2` [Triazolam, reference compound]: the IC50 in assay [1] was 1.4 nM; in assay [2] (setting [3]), 9000 nM; in assay [2] (read-out: IK50-Wert PAF) it was 9000 nM. With `Cc1nnc2n1-c1ccc(OCC(=O)NCC(C)C)cc1C(c1ccccc1Cl)=NC2` [(b)], the IC50 in assay [1] is 40 nM; in assay [2] (read-out: IK50-Wert PAF), 400 nM. For `CCOC(=O)CCCOc1ccc2c(c1)C(c1ccccc1Cl)=NCc1nnc(C)n1-2` [(a), 8-(3-Ethoxycarbonyl-propyloxy)-1-Methyl-6-(2-chlorphenyl)-4H-(1,2,4]triazolo(4,3-a][1,4]benzodiazepin], in that order: 570 nM and 1300 nM. For `Cc1nnc2n1-c1ccc(OCCN3CCOCC3)cc1C(c1ccccc1Cl)NC2` (centres unmarked) [(i)], in that order: 4550 nM and 400 nM. With `Cc1nnc2n1-c1ccc(C3=NC(C)(C)CO3)cc1C(c1ccccc1Cl)=NC2` [(f)], the IC50 was determined as 800 nM in assay [1] and 400 nM in assay [2] (read-out: IK50-Wert PAF). For `Cc1nnc2n1-c1ccc(C(=O)NCCN3CCOCC3)cc1C(c1ccccc1Cl)=NC2` [(g)], in that order: more than 5000 nM and 900 nM. In the case of `Cc1nnc2n1-c1ccc(Cl)cc1C(c1ccccc1)=NC2` [Alprazolam, reference compound], the IC50 was 5.5 nM in assay [1], 14000 nM in assay [2] (setting [3]) and 14000 nM in assay [2] (read-out: IK50-Wert PAF).

The values are drawn from patent publication EP0255028A2 (priority 1986, dated 1988).
